Results reported in EPA's ToxValDB 9.5 (doi:10.2903/j.efsa.2016.4475).
Converted amounts (≈) assume the structure as drawn.

Tests used:
Pontoscolex corethrurus = settings: acute; mortality
Rattus norvegicus = settings: oral
Mus musculus = settings: chronic; duration: 103 weeks; oral; diet; mortality
Daphnia magna = settings: acute; mortality
[1] = chronic, duration: 103 weeks, diet, histopathology: neoplastic

## CC(=O)OC1CCCCC1 [Cyclohexyl acetate]
Pontoscolex corethrurus
  LC50: 1150 mg/kg

## CC(=O)/C=C/C1=C(C)CCCC1(C)C [beta-Ionone]
Rattus norvegicus; subchronic, duration: 13 weeks, diet, M/F, body weight
  NOAEL: 10 mg/kg-day

## CC(=O)O[C@@H]1C[C@H]2CC[C@]1(C)C2(C)C [Isobornyl acetate]
Rattus norvegicus; subchronic, duration: 13 weeks, gavage, M/F, organ weight
  NOAEL: 15 mg/kg-day

## CC(=O)/C=C/C1C(C)=CCCC1(C)C (stereo not drawn) [alpha-Ionone]
Rattus norvegicus; subchronic, duration: 13 weeks, diet, M/F, food consumption
  NOAEL: 10 mg/kg-day

## CC1CCC(C(C)C)C(O)C1 (stereo unspecified) [Menthol]
Mus musculus
  NOAEL: 600 mg/kg-day
Rattus norvegicus; [1]
  NOAEL: 375 mg/kg-day

## CC(=O)/C=C/C1C(C)=CCC(C)C1(C)C (stereo not drawn) [alpha-Irone]
Daphnia magna
  LC50: 0.513 µg/mL (≈ 2.49 µM)

## CCCCCC1C(=O)CCC1CC(=O)OC (stereo unspecified) [Methyl dihydrojasmonate]
Pontoscolex corethrurus
  LC50: 1430 mg/kg
Rattus norvegicus; subchronic, duration: 13 weeks, diet, M/F, Sprague-Dawley, no effects
  NOAEL: 100 mg/kg-day

## CC(=O)O[C@@H]1C[C@H](C)CC[C@H]1C(C)C (racemic) [dl-Menthyl acetate]
Mus musculus
  NOAEL: 600 mg/kg-day
Rattus norvegicus; [1]
  NOAEL: 375 mg/kg-day
